In PubChem BioAssay AID248 (DTP/NCI, 2004):
“And” between values parts separate entries of the source, which are not always exact repeats. Identical values can stand only once. Inconclusive results and toxic doses are left out. Cut-off read from the data, not from the text of the source: active = T/C of 150% or more; inactive = T/C below 125%.

Tested on: L1210 leukemia ip in BDF1 mice, survival T/C
Experiment: NCI In Vivo Anticancer Drug Screen. Data for tumor model L1210 Leukemia (intraperitoneal) in B6D2F1 (BDF1) mice
Settings: endpoint: mean survival time, higher = longer survival
Procedure, shortened: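 Antitumor effect is assessed in tumor-bearing animals. Survival in the compound arm is compared with a vehicle-dosed control arm and expressed as their quotient.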

[1] = dose: 5.0 mg/kg/injection, schedule: Q01DX001 (ip), vehicle: saline
[2] = dose: 10.0 mg/kg/injection, schedule: Q01DX001 (ip), vehicle: saline
[3] = dose: 20.0 mg/kg/injection, schedule: Q01DX001 (ip), vehicle: saline
[4] = dose: 40.0 mg/kg/injection, schedule: Q01DX001 (ip), vehicle: saline
[5] = dose: 80.0 mg/kg/injection, schedule: Q01DX001 (ip), vehicle: saline
[6] = dose: 100.0 mg/kg/injection, schedule: Q01DX001 (ip), vehicle: saline
[7] = dose: 100.0 mg/kg/injection, schedule: Q04DX003 (ip), vehicle: saline
[8] = dose: 200.0 mg/kg/injection, schedule: Q04DX003 (ip), vehicle: saline
[9] = dose: 400.0 mg/kg/injection, schedule: Q04DX003 (ip), vehicle: saline
[10] = dose: 200.0 mg/kg/injection, schedule: Q01DX001 (ip), vehicle: saline
[11] = dose: 400.0 mg/kg/injection, schedule: Q01DX001 (ip), vehicle: saline
[12] = dose: 100.0 mg/kg/injection, schedule: Q01DX009 (ip), vehicle: saline with Tween-80
[13] = dose: 200.0 mg/kg/injection, schedule: Q01DX009 (ip), vehicle: saline with Tween-80
[14] = dose: 400.0 mg/kg/injection, schedule: Q01DX009 (ip), vehicle: saline with Tween-80
[15] = dose: 100.0 mg/kg/injection, schedule: Q04DX002 (ip), vehicle: saline with Tween-80
[16] = dose: 200.0 mg/kg/injection, schedule: Q04DX002 (ip), vehicle: saline with Tween-80
[17] = dose: 100.0 mg/kg/injection, schedule: Q04DX002 (ip), vehicle: Klucel (hydroxypropylcellulose) (HPC)
[18] = dose: 100.0 mg/kg/injection, schedule: Q01DX009 (ip), vehicle: Klucel (hydroxypropylcellulose) (HPC)
[19] = dose: 100.0 mg/kg/injection, schedule: Q04DX003 (ip), vehicle: Klucel (hydroxypropylcellulose) (HPC)
[20] = dose: 200.0 mg/kg/injection, schedule: Q01DX009 (ip), vehicle: Klucel (hydroxypropylcellulose) (HPC)
[21] = dose: 200.0 mg/kg/injection, schedule: Q04DX003 (ip), vehicle: Klucel (hydroxypropylcellulose) (HPC)
[22] = dose: 400.0 mg/kg/injection, schedule: Q01DX009 (ip), vehicle: Klucel (hydroxypropylcellulose) (HPC)

Measured: T/C

Cc1c(CCO)sc[n+]1Cc1ccccc1[N+](=O)[O-]
inactive: [1] 102 % of control | [2] 100 % of control | [3] 102 % of control | [4] 105 % of control | [5] 98 % of control | [6] 93 % of control

O=S(/C=C/c1ccccc1)c1ccc(Br)cc1 (configuration not stated)
inactive: [7] 100 % of control | [8] 93 % of control | [9] 100 % of control

CN(C)Cc1cc(C(C)(C)C)ccc1O
inactive: [7] 95 % of control | [8] 91 % of control

O=S1c2ccccc2Sc2ccccc21
inactive: dose: 100.0 mg/kg/injection, schedule: Q04DX003 (ip), vehicle: saline with Tween-80 103 % of control | dose: 200.0 mg/kg/injection, schedule: Q04DX003 (ip), vehicle: saline with Tween-80 97 % of control | dose: 400.0 mg/kg/injection, schedule: Q04DX003 (ip), vehicle: saline with Tween-80 100 % of control

NC1C(O)CCCC1O (configuration not stated)
inactive: [6] 107 % of control | [10] 102 % of control | [11] 102 % of control

C=CCc1c(C)cc(C)c(C)c1O
inactive: dose: 50.0 mg/kg/injection, schedule: Q01DX009 (sc), vehicle: olive oil, sesame oil, peanut oil 105 % of control | dose: 50.0 mg/kg/injection, schedule: Q04DX003 (sc), vehicle: olive oil, sesame oil, peanut oil 113 % of control | dose: 100.0 mg/kg/injection, schedule: Q01DX009 (sc), vehicle: olive oil, sesame oil, peanut oil 105 % of control | dose: 100.0 mg/kg/injection, schedule: Q04DX003 (sc), vehicle: olive oil, sesame oil, peanut oil 106 % of control | dose: 200.0 mg/kg/injection, schedule: Q01DX009 (sc), vehicle: olive oil, sesame oil, peanut oil 104 % of control | dose: 200.0 mg/kg/injection, schedule: Q04DX003 (sc), vehicle: olive oil, sesame oil, peanut oil 101 % of control

CCOc1ccc(N=Cc2cccc([N+](=O)[O-])c2)cc1
inactive: dose: 100.0 mg/kg/injection, schedule: Q01DX001 (ip), vehicle: saline with Tween-80 103 % of control | [12] 107 % of control and 90 % of control | dose: 200.0 mg/kg/injection, schedule: Q01DX001 (ip), vehicle: saline with Tween-80 90 % of control | [13] 97 % of control and 90 % of control | dose: 400.0 mg/kg/injection, schedule: Q01DX001 (ip), vehicle: saline with Tween-80 99 % of control | [14] 100 % of control and 91 % of control

CCCCCCCCCCCCCCCC[As]1c2ccccc2Nc2ccccc21
inactive: [15] 86 % of control | [16] 89 % of control | dose: 400.0 mg/kg/injection, schedule: Q04DX002 (ip), vehicle: saline with Tween-80 86 % of control

CCN(CC)CC(O)COc1ccccc1C (configuration not stated)
inactive: [1] 101 % of control | [2] 101 % of control | [3] 104 % of control | [4] 104 % of control | [5] 101 % of control | [6] 102 % of control

CCN(CC)CC(C)(C)/C=N/N=C(N)N
inactive: dose: 15.0 mg/kg/injection, schedule: Q01DX Z (ip), vehicle: saline 98 % of control | dose: 30.0 mg/kg/injection, schedule: Q01DX Z (ip), vehicle: saline 91 % of control | dose: 60.0 mg/kg/injection, schedule: Q01DX Z (ip), vehicle: saline 105 % of control

Fc1cc(F)c(F)c(Oc2c(F)c(F)c(-c3c(F)c(F)c(F)c(F)c3F)c(F)c2F)c1F
inactive: [12] 104 % of control | [13] 90 % of control | [14] 101 % of control

Cc1cccc(NC(=O)N(O)C2(C#N)CCCCC2)c1
inactive: [6] 93 % of control | [10] 96 % of control | [11] 98 % of control

COc1c(NC(=O)c2c(Br)c(Br)c(Br)c(Br)c2C(=O)O)cccc1[N+](=O)[O-]
inactive: [17] 94 % of control | dose: 200.0 mg/kg/injection, schedule: Q04DX002 (ip), vehicle: Klucel (hydroxypropylcellulose) (HPC) 102 % of control | dose: 400.0 mg/kg/injection, schedule: Q04DX002 (ip), vehicle: Klucel (hydroxypropylcellulose) (HPC) 118 % of control

C=C(Br)CNC(N)=S
inactive: dose: 50.0 mg/kg/injection, schedule: Q01DX009 (ip), vehicle: Klucel (hydroxypropylcellulose) (HPC) 96 % of control | [18] 100 % of control | [19] 94 % of control | [20] 102 % of control | [21] 95 % of control

COc1cc(OC)cc(C(=O)NCCCl)c1
inactive: dose: 50.0 mg/kg/injection, schedule: Q01DX001 (ip), vehicle: carboxymethylcellulose (CMC) 101 % of control | dose: 100.0 mg/kg/injection, schedule: Q01DX001 (ip), vehicle: carboxymethylcellulose (CMC) 110 % of control | dose: 200.0 mg/kg/injection, schedule: Q01DX001 (ip), vehicle: carboxymethylcellulose (CMC) 107 % of control | dose: 400.0 mg/kg/injection, schedule: Q01DX001 (ip), vehicle: carboxymethylcellulose (CMC) 107 % of control

COC(=O)C(=O)NCc1cnccn1
inactive: dose: 100.0 mg/kg/injection, schedule: Q01DX009 (ip), vehicle: saline 105 % of control | [7] 93 % of control | dose: 200.0 mg/kg/injection, schedule: Q01DX009 (ip), vehicle: saline 110 % of control | [8] 107 % of control | dose: 400.0 mg/kg/injection, schedule: Q01DX009 (ip), vehicle: saline 111 % of control | [9] 100 % of control

CCN(CC)CCOCCOC(=O)C(CC)(CC)c1cccc2ccccc12
inactive: dose: 25.0 mg/kg/injection, schedule: Q04DX002 (ip), vehicle: Klucel (hydroxypropylcellulose) (HPC) 93 % of control | dose: 50.0 mg/kg/injection, schedule: Q04DX002 (ip), vehicle: Klucel (hydroxypropylcellulose) (HPC) 97 % of control | [17] 93 % of control

CCOC(=S)Nc1ccc(S(=O)(=O)c2ccc(NC(=S)OCC)cc2)cc1
inactive: [6] 96 % of control | [10] 92 % of control | [11] 98 % of control

O=C(CBr)c1ccncc1
inactive: [1] 103 % of control | [2] 103 % of control | [3] 94 % of control

CNC1C(O)C2CCC(C2)C1c1ccccc1 (configuration not stated)
inactive: dose: 75.0 mg/kg/injection, schedule: Q01DX001 (ip), vehicle: Klucel (hydroxypropylcellulose) (HPC) 96 % of control | dose: 150.0 mg/kg/injection, schedule: Q01DX001 (ip), vehicle: Klucel (hydroxypropylcellulose) (HPC) 105 % of control | dose: 300.0 mg/kg/injection, schedule: Q01DX001 (ip), vehicle: Klucel (hydroxypropylcellulose) (HPC) 98 % of control

Cn1nc(N)c2ncc(-c3ccccc3)nc21
inactive: [18] 92 % of control | [7] 103 % of control | [20] 95 % of control | [8] 107 % of control | [22] 98 % of control | [9] 98 % of control

CC(C)Oc1ccc(C(N)=S)c2ccccc12
inactive: dose: 100.0 mg/kg/injection, schedule: Q01DX001 (ip), vehicle: Klucel (hydroxypropylcellulose) (HPC) 105 % of control | dose: 200.0 mg/kg/injection, schedule: Q01DX001 (ip), vehicle: Klucel (hydroxypropylcellulose) (HPC) 109 % of control | dose: 400.0 mg/kg/injection, schedule: Q01DX001 (ip), vehicle: Klucel (hydroxypropylcellulose) (HPC) 102 % of control

O=C(O)c1ccc2c(c1)C(=O)c1ccccc1C2=O
inactive: [15] 105 % of control | [16] 99 % of control

O=C(CBr)Nc1nccs1
inactive: dose: 3.12 mg/kg/injection, schedule: Q01DX009 (ip), vehicle: saline 98 % of control | dose: 6.25 mg/kg/injection, schedule: Q01DX009 (ip), vehicle: saline 93 % of control | dose: 12.5 mg/kg/injection, schedule: Q01DX009 (ip), vehicle: saline 104 % of control | dose: 12.5 mg/kg/injection, schedule: Q04DX003 (ip), vehicle: saline 98 % of control | dose: 25.0 mg/kg/injection, schedule: Q04DX003 (ip), vehicle: saline 94 % of control

COc1ccc(C=NC2C(OC(C)=O)OC(COC(C)=O)C(OC(C)=O)C2OC(C)=O)cc1 (configuration not stated)
inactive: [6] 98 % of control | [10] 98 % of control | [11] 98 % of control

O=C(N/N=C/c1ccc2c(c1)OCO2)c1ccccc1
inactive: [18] 93 % of control | [19] 101 % of control | [20] 96 % of control | [21] 104 % of control | [22] 86 % of control | dose: 400.0 mg/kg/injection, schedule: Q04DX003 (ip), vehicle: Klucel (hydroxypropylcellulose) (HPC) 98 % of control
